These results are taken from patent publication US20250101436A1, “APTAMERS AND SMALL MOLECULE LIGANDS” (MeiraGTx UK II Limited, priority 2021, published 2025).

Series [1] deals with 12C6-1 riboswitch. Briefly: Firefly luciferase assay, Luci-12C6-1 riboswitch construct in transfected HEK 293 cells. Format: cell-based, human. Particulars: for luciferase expression response: HEK 293 cells transfected with Luci-12C6-1; for activation of 12C6-1 and derivative riboswitches in regulating Luciferase expression (FIG. 4d): HEK 293 cells. An excerpt: Riboswitch construct: Aptamers were synthesized by Integrated DNA Technologies, Inc. The synthesized aptamer sequence, here referred to as aptamer sequence 12C6-1, contains a putative TPP aptamer sequence (AP008955.1/944373-944459; CP030117.1/954080-954166; CP023474.1/977011-977097) with C at 5′ end and a complementary G at 3′ end flanking the putative TPP aptamer sequence: […] […] (SEQ ID NO: 1). Golden Gate cloning strategy (New England Biolabs, NEB) was used to clone the synthesized aptamer sequences into an intron-exon-intron cassette to replace the guanine aptamer in the G17 riboswitch cassette (see SEQ ID NO: 15 recited in WO 2016/126747, which is incorporated herein in its entirety) to generate riboswitch construct Luci-12C6-1.

Series [2] deals with Alishewanella tabrizica thiC aptamer in TPPz riboswitch. The series can be described thus: Firefly luciferase assay, TPPz riboswitch construct in HEK 293 cells. Format: cell-based, human. Particulars: HEK 293, 50 μM Comp. 004. Here is the method: (§1) First, the E. coli thiM TPP aptamer, the aptamer that was used in Weeks' work in generating the Comp. 004, was tested in TPPm riboswitch construct (SEQ ID No. 87 as described in 62/994,135) for its response to Comp. 004 in inducing gene expression. To evaluate whether this novel TPP aptamer binder could bind a different TPP aptamer, TPP aptamer from Alishewanella tabrizica thiC gene (Microbiol Res. 2017 January; 195:71-80) was tested in TPPz riboswitch construct (SEQ ID No. 86 as described in 62/994,135).

The test system of series [3] is E. coli thiM TPP aptamer in TPPm riboswitch. Briefly: Firefly luciferase assay, TPPm riboswitch construct in HEK 293 cells. Type of series: cell-based, human. Particulars: HEK 293, 50 μM Comp. 004. Here is the method: as §1
Series [4] relates to N4-1C11 riboswitch. Briefly: Firefly luciferase assay, N4-1C11 riboswitch in HEK 293 cells. Format: cell-based, human. As to conditions: N4-1C11, 0.1 μM Comp. 004.
Protocol: (§4) Transfection: 3.5×10^4 human embryonic kidney (HEK) 293 cells were plated in a 96-well flat bottom plate the day before transfection. Plasmid DNA (500 ng) was added to a tube or a 96-well U-bottom plate. Separately, TransIT-293 reagent (Mirus; 1.4 L) was added to 50 μL Optimum I media (Life Technologies) and allowed to sit for 5 minutes at room temperature (RT). Then, 50 μL of this diluted transfection reagent was added to the DNA, mixed, and incubated at RT for 20 min. Finally, 7 μL of this solution was added to a well of cells in the 96-well plate. Four hours after transfection, medium containing transfection solution was replaced by medium with either TPP or fursultiamine as aptamer ligands.
(§5) Firefly luciferase assay of cultured cells: Twenty-four hours after media change, plates were removed from the incubator, and equilibrated to RT for several minutes on a lab bench, then aspirated. […] Following a 5 min incubation at RT, luminescence was measured using a Tecan machine with 500 ms read time. The luciferase activity was expressed as mean arbitrary light units (ALU)±S.D., and fold induction was calculated as the quotient of the luciferase activity obtained from cells with TPP or analog compound treatment divided by the luciferase activity obtained from cells without TPP or analog compound treatment.
The test system of series [5] is N5-12E5 riboswitch. The series can be described thus: Firefly luciferase assay, N5-12E5 riboswitch in HEK 293 cells. As to conditions: N5-12E5, 0.1 μM Comp. 004. Format: cell-based, human.
Protocol: as §4, §5
For series [6], the system named is mEpo-12G6 (N5-12G6 riboswitch in mEpo gene). Briefly: ELISA for mouse erythropoietin, construct mEpo-12G6 in AML12 cells. Type of series: cell-based. As to conditions: mEpo-12G6, 1.85 μM Comp. 004. An excerpt: (§2) Riboswitch constructs: The alternative splicing riboswitch cassette containing aptamers N5-12G6 or N4-1C11 was inserted between nucleotide position 307 and 308 in the mouse erythropoietin cDNA sequence, generating constructs mEpo-12G6 and mEpo-1C11. Expression of the erythropoietin gene was driven by CASI promoter. The intron-exon-intron cassette without aptamer sequence was inserted at the same position in the cDNA of mEpo gene to create construct mEpo-Con1, serving as a control for constitutive target gene expression. N5-12G6 riboswitch cassette was inserted between nucleotide position 424 and 425 in the cDNA of human growth hormone (hGH) gene driven under CMV promoter.
(§3) Enzyme-linked immunosorbent assay (ELISA) for mouse erythropoietin (mEpo): AML-12 cells or C2C12 cells were transfected as described in Example 1 with TransIT-X2 transfection reagent (Mirus Bio). Four hours after transfection, the transfected cells were treated with or without Comp. 004 at the indicated doses. The supernatants from the transfected cells were collected 24 hours after compound treatment and were subjected to ELISA for the detection of mEpo in the supernatant following the manufacturer's instruction (R&D).
On the technique in general: An ELISA detects its analyte on a solid surface through an enzyme-linked reagent.

Series [7] concerns mEpo-1C11 (N4-1C11 riboswitch in mEpo gene). Briefly: ELISA for mouse erythropoietin, construct mEpo-1C11 in AML12 cells. Format: cell-based. Particulars: mEpo-1C11, 1.85 μM Comp. 004.
Source text: as §2, §3

Series [8] deals with riboswitch regulatable mEpo constructs. Briefly: ELISA for mouse erythropoietin, riboswitch regulatable mEpo constructs in C2C12 cells. Type of series: cell-based.
Source text: as §2, §3

Series [9] concerns hGH-12G6 (N5-12G6 riboswitch in hGH gene). The series can be described thus: ELISA for human growth hormone, hGH-12G6 construct in HEK 293 cells. Type of series: cell-based. As to conditions: HEK 293, hGH-12G6, 3.1 μM Comp. 004.
Source text: as §2
ELISA for human growth hormone (hGH): HEK 293 cells were transfected as described in Example 1 with TransIT-293 transfection reagent (Mirus Bio). Four hours after transfection, the transfected cells were treated with or without Comp. 004 at the indicated doses. The supernatants from the transfected cells were collected 24 hours after Comp. 004 treatment and were subjected to ELISA for the detection of hGH in the supernatant following the manufacturer's instruction (R&D Systems).

In series [10] the test system is AAV8.mEpo.12G6 mEpo expression. The series can be described thus: Serum mouse Epo ELISA in mice injected in the muscle with AAV8.mEpo.12G6, oral Comp. 004. Format: in vivo. As to conditions: 1×10^11 GC AAV8 in the muscle, 30 mg/kg oral. Here is the method: For regulated mouse erythropoietin (mEpo) study, each female Balb/c mouse was injected in the quadricep muscle with 1.0×10^11, 5×10^10, 1×10^10, or 5×10^9 GC of AAV8 vectors containing riboswitch N5-12G6 regulated mEpo gene (AAV8.mEpo.12G6). 5 weeks post AAV injection, mice were treated with Comp. 004 formulated in 0.5% methylcellulose (MC): 0.25% Tween® 80 in deionized (DI) water via oral gavage. 16 hours post oral dosing, mice were subjected to submandibular blood collection. 10 fold diluted serum was used to measure mouse serum Epo using ELISA (Invitrogen).

Series [11] relates to hematocrit of anemic mice. The series can be described thus: Hematocrit in mouse model of chronic kidney disease (CKD)-associated anemia with AAV8.mEpo.12G6. Format: in vivo. As to conditions: for hematocrit: 300 mg/kg for 15 days and 10 doses. Here is the method:
Chronic kidney disease-associated anima: male C57Bl/6 mice were injected intramuscularly with 2.5×10^10 vg or 1.0×10^10 vg of AAV8.mEpo.12G6 per mouse. One week post AAV injection, mice were treated daily with 50 mg/kg adenine (Sigma) via oral gavage for total 28 treatment in 5 weeks. Hematocrit was measured after Adenine treatment and before small molecule inducer treatment and monitored every 7 to 10 days post daily small molecule inducer oral dosing.

Series [12] concerns hPTH-12G6 (N5-12G6 riboswitch in hPTH gene). The series can be described thus: ELISA for human PTH, hPTH-12G6 construct in HEK 293 cells. As to conditions: HEK 293, hPTH-12G6. Format: cell-based. The source says:
Riboswitch constructs: Alternative splicing riboswitch cassette containing aptamers N5-12G6 was inserted between nucleotide position 181 and 182 in human parathyroid hormone (hPTH) cDNA sequence, generating constructs hPTH-12G6. Expression of the erythropoietin gene was driven by CASI promoter.
Enzyme-linked immunosorbent assay (ELISA) for human PTH: HEK 293 cells were transfected as described in Example 1 with TransIT-293 transfection reagent (Mirus Bio). Four hours after transfection, the transfected cells were treated with or without Compound 004 at the indicated doses. The supernatants from the transfected cells were collected 48 hours after compound treatment and were subjected to ELISA for the detection of human PTH in the supernatant following the manufacturer's instruction (Abcam).

Series [13] deals with AAV9.hPTH-12G6 hPTH expression. Briefly: hPTH production and serum calcium in mice injected intramuscularly with AAV9.hPTH-12G6, oral Comp. 004. Type of series: in vivo. Particulars: oral 30, 100 or 300 mg/kg for 3 days. Here is the method:
AAV2.9 viral particle production: The AAV9 particles used for the transduction of mice comprised a viral genome derived from AAV2 (ITR) and a capsid derived from AAV9. The hPTH-12G6 was cloned into AAV plasmid backbone with CASI promoter, and the AAV plasmid was packaged into AAV9 capsid, generating vector AAV9.hPTH-12G6 (Signagen)
Animal study: C57BL/6 mice were injected intramuscularly with AAV9.hPTH-12G6 at 2.5×10^11 viral genome (VG) per mouse of the AAV9 viral particle into both quadriceps. Compound 004 was formulated in 0.5% methylcellulose (MC): 0.25% Tween® 80 in deionized (DI) water for oral administration. 30 days after AAV vector delivery, mice were treated orally via oral gavage with 0 mg/kg, 30 mg/kg, 100 mg/kg or 300 mg/kg Comp. 004 for 3 days.

Series [14] deals with N5-12G6 riboswitch. Briefly: Firefly luciferase assay, N5-12G6 riboswitch in HEK293 cells. As to conditions: for fold induction at 2 µM: Homo sapiens, HEK293, read-out: Fold induction 2 μM (HEK), 12G6 riboswitch, luciferase, HEK293, 2 μM.
Protocol: as §4
Firefly luciferase assay of cultured cells: Twenty-four hours after media change, plates were removed from the incubator, and equilibrated to RT for several minutes on a lab bench, then aspirated. Glo-lysis buffer (Promega, 100 μL, RT) was added, and the plates allowed to remain at RT for at least 5 minutes. Then, the well contents were mixed by 50 μL trituration, and 20 μL of each sample was mixed with 20 μL of bright-glo reagent (Promega) that had been diluted to 10% in glo-lysis buffer. 96 wells were spaced on an opaque white 384-well plate. Following a 5 min incubation at RT, luminescence was measured using a Tecan machine with 500 ms read time. The luciferase activity was expressed as mean arbitrary light units (ALU)±S.D., and fold induction was calculated as the quotient of the luciferase activity obtained from cells with TPP or analog compound treatment divided by the luciferase activity obtained from cells without TPP or analog compound treatment.

As to `CC(=C(CCO)SSCC1CCCO1)N(C=O)Cc1cnc(C)nc1N` (stereo in doubt) [fursultiamine, reference compound], the luciferase expression response entry in [1] is given as “induced luciferase gene expression in a dose-dependent manner”.
`c1cc(N2CCNCC2)c(NCc2ccc3nccnc3c2)cn1` [Comp. 004]: the “fold increase in luciferase expression” value in [1] (Luci-12C6-1, HEK 293, 50 uM Comp. 004) is recorded as 360 fold; in [2], 26 fold; in series [4], 16 fold; in series [5], 8 fold; in series [14] (N5-12G6, 0.1 μM Comp. 004) it was 36 fold. Further, in [3], the “increase in luciferase expression” value is 4.1. The entries for the “fold induction of mEpo expression” value in series [6] and in series [7] were “about 148 fold” and about 71 fold, respectively. In [8], the mEpo expression entry is “induced upon treatment of Comp. 004 in a dose dependent manner”. The “fold of the hGH expression from cells without compound treatment” value in series [9] is listed as “approximately 243 fold”. The hGH expressed in series [9] was determined as 202 ng/mL. Besides, in series [10], the “serum vector-expressed mEpo” value is recorded as “elevated”. In addition, the hematocrit entry in [11] (AAV 1×10^10 vg per mouse) is on record as “restored to normal level”; in series [11] (AAV 2.5×10^10 vg per mouse) it was “exceeded the normal hematocrit level”. The “hematocrit of anemic mice” value in series [11] (after 20 oral doses, biggest increase in the 100 mg/kg dose group) is reported as “increased”. Further, the hPTH expression result in [12] is “dose dependent manner”. For the same compound, in series [13], the “production of hPTH in mice” value is on record as “induced dose-dependent production of hPTH”. Besides, the serum calcium concentration result in series [13] is “increase in the serum calcium concentration”.
`Cc1ncc(C[n+]2csc(CCO[P@](=O)(O)OP(=O)(O)O)c2C)c(N)n1` [TPP, Thiamine Pyrophosphate, reference compound]: the luciferase expression response entry in series [1] is on record as “dose-dependent response”.
Take `O=C(O)CCC(=O)Nc1ccc2nccnc2c1` [compound 003]: the “activation of 12C6-1 and derivative riboswitches in regulating Luciferase expression (FIG. 4d)” value in [1] was “bind 12C6-1 and activate derivative riboswitches”.
On the same count and under the same terms, the same measure for `O=C(CNc1cnccc1N1CCNCC1)Nc1ccc2nccnc2c1` [compound 005]: “bind 12C6-1 and activate derivative riboswitches”; for `Cl.c1cc(N2CCNCC2)c(CNCc2ccc3nccnc3c2)cn1` [compound 008]: “bind 12C6-1 and activate derivative riboswitches”.
The same measure, in the same setting: under `C=CN(CCN(C)C)Cc1ccc2nccnc2c1` [compound 009] stands “bind 12C6-1 and activate derivative riboswitches”; under `CN(C)CCNCc1ccc2nccnc2c1` [compound 011], “bind 12C6-1 and activate derivative riboswitches”.
For `FC(F)(F)c1cc(N2CCNCC2)c(NCc2ccc3nccnc3c2)cn1` [compound 117, 4-(piperazin-1-yl)-N-(quinoxalin-6-ylmethyl)-6-(trifluoromethyl)pyridin-3-amine], in series [14], the fold induction at 2 µM came out at 30.6.
Regarding `Cc1cc(N2CCNCC2)c(NCc2ccc3nccnc3c2)cn1` [compound 118, 6-methyl-4-(piperazin-1-yl)-N-(quinoxalin-6-ylmethyl)pyridin-3-amine], the fold induction at 2 µM in [14] stood at 26.2.
Consider `Fc1cc(CNc2cncc(Cl)c2O[C@@H]2CCNC2)cc2nccnc12` [compound 119, (R)-5-chloro-N-((8-fluoroquinoxalin-6-yl)methyl)-4-(pyrrolidin-3-yloxy)pyridin-3-amine], for which the fold induction at 2 µM in series [14] was found to be 32.5.
Consider `Fc1cc2nccnc2cc1CNc1cncc(Cl)c1O[C@@H]1CCNC1` [compound 120, (R)-5-chloro-N-((7-fluoroquinoxalin-6-yl)methyl)-4-(pyrrolidin-3-yloxy)pyridin-3-amine], for which the fold induction at 2 µM in series [14] turned out to be 24.7.
The same measure, in the same setting: under `Clc1cc2nccnc2cc1CNc1cncc(Cl)c1O[C@@H]1CCNC1` [compound 121, (R)-5-chloro-N-((7-chloroquinoxalin-6-yl)methyl)-4-(pyrrolidin-3-yloxy)pyridin-3-amine] stands 28.2; under `Cc1cc(CNc2cnccc2O[C@@H]2CCNC2)cc2nccnc12` [compound 122, (R)—N-((8-methylquinoxalin-6-yl)methyl)-4-(pyrrolidin-3-yloxy)pyridin-3-amine], 35.8.
Still for that read-out and setting: under `Cc1cc2nccnc2cc1CNc1cnccc1O[C@@H]1CCNC1` [compound 123, (R)—N-((7-methylquinoxalin-6-yl)methyl)-4-(pyrrolidin-3-yloxy)pyridin-3-amine] stands 83.9; under `FC(F)(F)c1cc(CNc2cnccc2O[C@@H]2CCNC2)cc2nccnc12` [compound 124, (R)-4-(pyrrolidin-3-yloxy)-N-((8-(trifluoromethyl)quinoxalin-6-yl)methyl)pyridin-3-amine], 3.
